Measurements reported in patent US20250302912A1, “COMPOSITION INCLUDING PEPTIDE COMPOUND AND SURFACTANT” (CHUGAI SEIYAKU KABUSHIKI KAISHA, priority 2021, published 2025).
Converted amounts (≈) assume the structure as drawn. Bridge positions count the residues as written; N and C are the ends. Square brackets hold non-standard residues; d marks the D form. Peptide text beside a SMILES is read from it. * marks the point of attachment. Ala(4-thiazolyl) = N[C@@H](Cc1cscn1)C(=O)O; NMeNle(6-CHF2) = CN[C@@H](CCCCC(F)F)C(=O)O; Phe(3-Cl) = N[C@@H](Cc1cccc(Cl)c1)C(=O)O; NMehPhe = CN[C@@H](CCc1ccccc1)C(=O)O; NMeF = CN[C@@H](Cc1ccccc1)C(=O)O; NMeD = CN[C@@H](CC(=O)O)C(=O)O; NMeS = CN[C@@H](CO)C(=O)O; Pip = O=C(O)[C@@H]1CCCCN1; Nle = CCCC[C@H](N)C(=O)O; Pyrrolidide = C1CCN(*)C1; dNMeA = CN[C@H](C)C(=O)O; Propyl = CCC*

Assays:
[1] = Evaluation of Caco-2 membrane permeability; details: human, Caco-2, pH 6.5, Permeability coefficient (Caco-2 Papp), FaSSIF/HBSS buffer pH 6.5 apical
[2] = Evaluation of solubility in 50 mM phosphate buffer (PPB, pH 6.5); format: physicochemical; details: 50 mM phosphate buffer pH 6.5, 37° C., 1 atm, 22 to 24 hours
Experimental: To an excess amount of lyophilized powder of the compound, 50 mM phosphate buffer (PPB: Phosphate buffer, pH 6.5) is added, and after shaking (37° C., 1 atm, 1800 rpm, for 22 to 24 hours), the mixture is filtered with a filter, and the compound concentration of the filtrate is measured by LC/MS/MS. Solubility (μg/mL) is calculated from the measured compound concentration.
Solubility (g/mL) was calculated from the measured compound concentration.

claudin protein = details: Drug Metab. Pharmacokinet., 26 (2): 162170 (2011); cited from earlier work
[3] = Without 5 mM lauroyl-L-carnitine

SMILES	Papp A→B at 180 min ([1]; With 5 mM lauroyl-L-carnitine) [×10⁻⁶ cm/s]	Papp A→B at 180 min [1, 3] [×10⁻⁶ cm/s]	solubility [2] [µg/mL]	Effect on expression of claudin protein / tight junction (claudin protein)
CC[C@H](C)[C@@H]1NC(=O)[C@H](CC(C)C)N(C)C(=O)CC(C(=O)N2CCOCC2)N(C)C(=O)[C@H](C2CCCC2)N(C)C(=O)C2(CCCC2)NC(=O)[C@@H]2CCCN2C(=O)[C@H](CCc2ccc(C(F)(F)F)c(Cl)c2)NC(=O)CN(C)C(=O)[C@H](CC2CCCCC2)N(C)C(=O)[C@@H]2CCN2C(=O)[C@H](C)N(C)C1=O (single isomer, unassigned) [Compound 2]	0.265	0.0491		
CC[C@H](C)[C@@H]1NC(=O)[C@H](CC(C)C)N(C)C(=O)CC(C(=O)N2CCCCC2)N(C)C(=O)[C@H](C2CCCC2)N(C)C(=O)C2(CCCC2)NC(=O)[C@@H]2CCCN2C(=O)[C@H](CCc2ccc(C(F)(F)F)c(Cl)c2)NC(=O)CN(C)C(=O)[C@H](CC2CCCCC2)N(C)C(=O)[C@@H]2CCN2C(=O)[C@H](C)N(C)C1=O (single isomer, unassigned) [Compound 8]	0.154	0.042		
CC[C@H](C)[C@@H]1NC(=O)[C@H](Cc2ccccc2)N(C)C(=O)CN(C)C(=O)C[C@@H](C(=O)N2CCCCC2)NC(=O)[C@H](CC(C)C)N(C)C(=O)[C@H](COC(C)(C)C)NC(=O)[C@H](CC(C)C)N(C)C(=O)[C@H](CCc2ccccc2)N(C)C(=O)CN(C)C(=O)[C@H]([C@@H](C)O)NC(=O)[C@H](CC(C)C)N(C)C1=O (stereo in doubt) [Compound 7]	0.526	< 0.0944		
CCCCCCCCCCCC(=O)O[C@H](CC(=O)[O-])C[N+](C)(C)C [lauroyl-L-carnitine]				suppresses the expression of claudin protein and thus expands the tight junction

Second part, led by results:

Papp A→B at 180 min ([1]; With 5 mM lauroyl-L-carnitine) [×10⁻⁶ cm/s]	Papp A→B at 180 min [1, 3] [×10⁻⁶ cm/s]	solubility [2] [µg/mL]	SMILES	Effect on expression of claudin protein / tight junction (claudin protein)
0.0214	0.00949		CC[C@H](C)[C@@H]1NC(=O)C(CC(C)C)N(C)C(=O)CC(C(=O)N(C)C)N(C)C(=O)[C@H](C2CCCC2)N(C)C(=O)C(C)NC(=O)C(C)N(C)C(=O)[C@H](CCc2ccc(C(F)(F)F)c(Cl)c2)NC(=O)CN(C)C(=O)[C@H](CC2CCCCC2)N(C)C(=O)[C@@H]2CCN2C(=O)[C@H](C)N(C)C1=O (single isomer, unassigned) [Compound 9]	
	< 0.00976		CC[C@H](C)[C@@H]1NC(=O)[C@H](CC(C)C)N(C)C(=O)CC(C(=O)N2CCOCC2)N(C)C(=O)[C@H](C2CCCC2)N(C)C(=O)C2(CCCC2)NC(=O)[C@@H]2CCCN2C(=O)[C@H](CCc2ccc(C(F)(F)F)c(Cl)c2)NC(=O)CN(C)C(=O)[C@H](C2CCCC2)N(C)C(=O)[C@@H]2CCN2C(=O)[C@H](C)NC1=O (single isomer, unassigned) [Compound 10]	
0.012	< 0.0107	103 (≈ 71.2 µM)	CC[C@H](C)[C@@H]1NC(=O)[C@H](Cc2ccccc2)N(C)C(=O)[C@H](Cc2cscn2)NC(=O)[C@@H](C)N(C)C(=O)C[C@@H](C(=O)N2CCCC2)NC(=O)[C@@H]2CCCN2C(=O)[C@H](CCCCC(F)F)N(C)C(=O)CNC(=O)[C@H](Cc2ccccc2)N(C)C(=O)[C@@H]2CCCN2C(=O)[C@H](CCc2ccccc2)N(C)C1=O [Compound 4] ([dNMeA][Ala(4-thiazolyl)][NMeF]I[NMehPhe]P[NMeF]G[NMeNle(6-CHF2)]PD-Pyrrolidide; lactam N-11)	
0.0264	0.00372	< 1.09	CCCC[C@@H]1NC(=O)[C@@H]2CCCN2C(=O)[C@H](CCCC)NC(=O)[C@@H](C)N(C)C(=O)C[C@@H](C(=O)N2CCCC2)N(C)C(=O)[C@@H]2CCCN2C(=O)[C@H]([C@@H](C)CC)NC(=O)[C@@H]2CCCCN2C(=O)[C@H](Cc2cccc(Cl)c2)NC(=O)[C@H](COCCC)N(C)C(=O)[C@H](Cc2ccccc2)N(C)C1=O [Compound 5] ([dNMeA][Nle]P[Nle][NMeF][NMeS](Propyl)[Phe(3-Cl)][Pip]IP[NMeD]-Pyrrolidide; lactam N-11)	
